Reference: patent US9102620B2, “Deuterated N-ethyl-N-phenyl-1,2-dihydro-4-hydroxy-5-chloro-1-methyl-2-oxoquinoline-3-carboxamide, salts and uses thereof” (TEVA PHARMACEUTICAL INDUSTRIES, LTD., priority 2010, dated 2015)
Like-named read-outs stand apart in the source and are kept apart here.

How the values were obtained:
CYP1A2 mRNA = conditions: human, 3 days; for mRNA Percent positive control, CYP1A2: hepatocytes
Description: (§1) After treatment, the cells were incubated in situ with marker substrates for the analysis of phenacetin O-dealkylation (marker for CYP1A2) and midazolam 1′-hydroxylation (marker for CYP3A4/5) by LC/MS/MS.
(§2) Approximately 24 hours after the last treatment, hepatocytes were lysed in TRIzol reagent after the in situ marker substrate incubations, and cell lysates were stored at −75±5° C. For human hepatocyte preparation H971, media from six wells per treatment group was aspirated, and approximately 132 μL TRIzol were added to each well. The cell lysates were mixed by repeated pipetting. Total RNA was isolated from the cell lysates using the TRIzol protocol (Invitrogen) and was purified using the RNeasy Mini Kit (Qiagen Inc.) according to SOP L6161.02. RNA quality and concentration were determined by measuring absorbance at 260 and 280 nm on a BioTek Synergy HT plate reader (BioTek Instruments, Inc.) with KC4 Signature software (version 3.4 Rev 21, BioTek Instruments, Inc.) according to SOP L6162.02. The analysis of RNA integrity was carried out with the RNA 6000 Nano Assay Kit on an Agilent 2100 Bioanalyzer (Agilent Technologies, Inc.) according to SOP L6162.02. Single-stranded cDNA was prepared from RNA with the RT Master Mix using the AB 7300 Real Time PCR system thermocycling program or AB 7900HT Fast Real Time PCR System thermocycling program (Applied Biosystems) according to SOP L6160.04. […] The RT Master Mix was added to each RNA sample to complete the components of the reaction. No template controls (NTCs) were included in the analysis. For the NTC reactions, RNase-free water was added in place of the RNA sample. The cDNA prepared samples were stored at −20±5° C. prior to analysis by qRT-PCR.
(§3) Quantitative RT-PCR was carried out according to SOP L6160.04 (XenoTech, LLC) and the Applied Biosystems protocol. Each PCR was performed in triplicate. A Primer Mix was prepared for each Gene Expression assay. A typical Primer Mix contained TaqMan Universal Master Mix (1×), Gene Expression Assay (1×, 900 nM forward and reverse primers) and RNase-free water. The Reaction Mix was prepared by adding the Primer Mix to cDNA. A percentage of samples (no less than 10%) included NACs. […] The relative quantity of the target cDNA compared with that of the control cDNA (GAPDH) was determined by the ΔΔCt method (Applied Biosystems User Bulletin #2). Relative quantification measures the change in mRNA expression in a test sample relative to that in a control sample (e.g., DMSO). This method assumes that the efficiency of the target amplification and the efficiency of the endogenous control amplification are approximately equal.
(§4) For qRT-PCR, data were processed using the Sequence Detection System (SDS) Software version 1.4, for Relative Quantification (Applied Biosystems). This software analyzes relative gene expression using the comparative Ct method (ΔΔCt), which relates the PCR signal of the target transcript to the PCR signal of the target in an untreated control. Both the treated sample and the untreated control signals are normalized to the endogenous control (GAPDH), for which expression is not affected by treatment and expression is constant throughout the tissue being tested. […] Calculations are as follows: ΔCt=Ct(target)−Ct(endogenous control) 1. ΔΔCt=ΔCt(treated sample)−ΔCt(untreated control) 2. Fold change in expression=2−ΔΔCt 3.
(§5) The level of mRNA expression relative to the positive control was calculated as follows: […]

CYP3A4 mRNA = conditions: human, 3 days; for mRNA Percent positive control, CYP3A4: hepatocytes
Description: as §1, §2, §3, §4, §5

| Compound | mRNA Fold increase, CYP1A2 (CYP1A2 mRNA; 0.01 μM) | mRNA Fold increase, CYP1A2 (CYP1A2 mRNA; 0.05 μM) | mRNA Fold increase, CYP1A2 (CYP1A2 mRNA; 0.1 μM) | mRNA Fold increase, CYP1A2 (CYP1A2 mRNA; 1 μM) | mRNA Fold increase, CYP1A2 (CYP1A2 mRNA; 10 μM) | mRNA Percent positive control, CYP1A2 (CYP1A2 mRNA; 0.01 μM) | mRNA Percent positive control, CYP1A2 (CYP1A2 mRNA; 0.05 μM) | mRNA Percent positive control, CYP1A2 (CYP1A2 mRNA; 0.1 μM) | mRNA Percent positive control, CYP1A2 (CYP1A2 mRNA; 1 μM) | mRNA Percent positive control, CYP1A2 (CYP1A2 mRNA; 10 μM) | mRNA Fold increase, CYP3A4 (CYP3A4 mRNA; 0.01 μM) | mRNA Fold increase, CYP3A4 (CYP3A4 mRNA; 0.05 μM) | mRNA Fold increase, CYP3A4 (CYP3A4 mRNA; 0.1 μM) | mRNA Fold increase, CYP3A4 (CYP3A4 mRNA; 1 μM) | mRNA Fold increase, CYP3A4 (CYP3A4 mRNA; 10 μM) | mRNA Percent positive control, CYP3A4 (CYP3A4 mRNA; 0.01 μM) | mRNA Percent positive control, CYP3A4 (CYP3A4 mRNA; 0.05 μM) | mRNA Percent positive control, CYP3A4 (CYP3A4 mRNA; 0.1 μM) | mRNA Percent positive control, CYP3A4 (CYP3A4 mRNA; 1 μM) | mRNA Percent positive control, CYP3A4 (CYP3A4 mRNA; 10 μM) |
| --- | --- | --- | --- | --- | --- | --- | --- | --- | --- | --- | --- | --- | --- | --- | --- | --- | --- | --- | --- | --- |
| [2H]C([2H])([2H])C([2H])([2H])N(C(=O)c1c(O)c2c(Cl)cccc2n(C)c1=O)c1ccccc1 [Compound 2, N-D5-ethyl-N-phenyl-1,2-dihydro-4-hydroxy-5-chloro-1-methyl-2-oxoquinoline-3-carboxamide] | 2.84 fold | 4.98 fold | 7.20 fold | 13.1 fold | 24.3 fold | 24.2% | 52.5% | 81.7% | 159% | 307% | 0.437 fold | 0.428 fold | 0.339 fold | 0.252 fold | 0.689 fold | −15.5% | −15.8% | −18.2% | −20.6% | −8.57% |
| CCN(C(=O)c1c(O)c2c(Cl)cccc2n(C)c1=O)c1ccccc1 [Laquinimod, N-ethyl-N-phenyl-1,2-dihydro-4-hydroxy-5-chloro-1-methyl-2-oxoquinoline-3-carboxamide] | 4.22 fold | 7.90 fold | 9.50 fold | 16.8 fold | 20.5 fold | 42.5% | 91.1% | 112% | 209% | 257% | 0.621 fold | 0.347 fold | 0.427 fold | 0.286 fold | 0.636 fold | −10.4% | −18.0% | −15.8% | −19.7% | −10.0% |
